Test results taken from US8586579B2, “Anellated pyridine compounds” (Hoffmann-La Roche Inc., priority 2010, dated 2013).
pKi: −log10 of the molar value. Read-outs that look alike come from different tables or passages of the source.

Assays:
human D2 receptor = human D2 receptor (Homo sapiens (Human), UniProt P14416); assay: Radioligand binding assay, [3H]-spiperone, human D2 receptor; conditions: membranes of HEK293 EBNA cells expressing human D2; 0.7 nM [3H]-spiperone
Method: (§1) HEK293 EBNA cells were transiently transfected with expression plasmids encoding for the human D2 or D3 or for the human 5-HT2A receptor, respectively. The cells were harvested 48 h post-transfection, washed three times with cold PBS and stored at −80° C. prior to use. The pellet was suspended in cold 50 mM Tris-HCl buffer comprising 10 mM EDTA (pH 7.4) and was homogenized with a Polytron (Kinematica AG, Basel, Switzerland) for 20-30 sec at 12.000 rpm. After centrifugation at 48.000×g for 30 min at 4° C., the pellet was resuspended in cold 10 mM Tris-HCl buffer comprising 0.1 mM EDTA (pH 7.4), homogenized, and centrifuged as above. This pellet was further resuspended in a smaller volume of ice cold 10 mM Tris-HCl buffer comprising 0.1 mM EDTA (pH 7.4) and homogenized with a Polytron for 20-30 sec at 12.000 rpm. The protein content of this homogenate was determined with the Bio-Rad (Bradford) Protein Assay (Biorad Laboratories GmbH, München, Germany) according to the instructions of the manufacturer using gamma globulin as the standard. This homogenate was stored at −80° C. in aliquots and thawed immediately prior to use.
(§2) Aliquots of membrane preparations were thawed at RT, resuspended in assay buffer (D2, D3: 50 mM Tris-HCl, 120 mM NaCl, 5 mM MgCl2, 1 mM EDTA, 5 mM KCl, 1.5 mM CaCl2, pH=7.4; 5-HT2A: 50 mM Tris-HCl, 10 mM MgCl2, 1 mM EGTA, pH=7.4), homogenized with a Polytron for 20-30 sec at 12.000 rpm and adjusted to a final concentration of approximately 7.5 μg protein/well (D2, D3) and 15 μg protein/well (5-HT2A), respectively.
(§3) The binding affinity (Ki) of the compounds was determined using radioligand binding. Membranes were incubated in a total volume of 200 μl with a fixed concentration of radioligand (final concentration approximately 0.7 nM [^3H]-spiperone for D2, 0.5 nM [^3H]-spiperone for D3, and 1.1 nM [^3H]-ketanserin for 5-HT2A) and ten concentrations of test compound in ranging between 10 μM-0.1 nM for 1 h at RT. […] The nonspecific binding was determined with equally composed reaction mixtures in the presence of 10 μM unlabelled spiperone. Per well 45 μl of Microscint 40 (Perkin Elmer, Schwerzenbach, Switzerland) was added, plates for sealed, shaken for 20 min and counted for 3 min on a Topcount Microplate Scintillation Counter (Can berra Packard SA, Zürich, Switzerland) with quenching correction.
(§4) The CPM value for each duplicate of a concentration of competing compound was averaged (y1), then the % specific binding was calculated according to the equation (((y1−non-specific)/(total binding−non-specific))×100). Graphs were plotted with the % specific binding using XLfit, a curve fitting program that iteratively plots the data using Levenberg-Marquardt algorithm. […] The affinity constant (K) was calculated using the Cheng-Prusoff equation Ki=(IC50/1+([L]/Kd), where [L] is the concentration of radioligand and Kd is the dissociation constant of the radioligand at the receptor as determined by the saturation isotherm.

human D3 receptor = human D3 receptor (Homo sapiens (Human), UniProt P35462); assay: Radioligand binding assay, [3H]-spiperone, human D3 receptor; conditions: membranes of HEK293 EBNA cells expressing human D3; 0.5 nM [3H]-spiperone
Sequence of human D3 receptor (P35462 whole entry): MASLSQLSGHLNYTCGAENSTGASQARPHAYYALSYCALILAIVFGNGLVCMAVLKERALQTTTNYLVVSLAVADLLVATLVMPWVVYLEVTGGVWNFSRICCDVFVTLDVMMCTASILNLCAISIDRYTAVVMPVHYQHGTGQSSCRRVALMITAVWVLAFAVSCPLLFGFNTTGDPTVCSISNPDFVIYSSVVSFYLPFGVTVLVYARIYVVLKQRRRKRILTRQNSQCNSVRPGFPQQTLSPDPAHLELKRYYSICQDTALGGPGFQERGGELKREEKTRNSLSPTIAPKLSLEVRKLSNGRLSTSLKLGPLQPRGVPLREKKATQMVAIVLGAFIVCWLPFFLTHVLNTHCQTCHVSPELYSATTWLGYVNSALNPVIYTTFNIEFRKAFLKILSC
Method: as §1, §2, §3
as §4, with “algorithm. The single site competition analysis equation used was y=A+((B−A)/(1+((x/C)D))), where y is the % specific binding, A is the minimum y, B is the maximum y, C is the IC50, x is the log 10 of the concentration of the competing compound and D is the slope of the curve (the Hill Coefficient).” for “algorithm.”

human 5-HT2A receptor = human 5-HT2A receptor (Homo sapiens (Human), UniProt P28223); assay: Radioligand binding assay, [3H]-ketanserin, human 5-HT2A receptor
Sequence of human 5-HT2A receptor (P28223 whole entry): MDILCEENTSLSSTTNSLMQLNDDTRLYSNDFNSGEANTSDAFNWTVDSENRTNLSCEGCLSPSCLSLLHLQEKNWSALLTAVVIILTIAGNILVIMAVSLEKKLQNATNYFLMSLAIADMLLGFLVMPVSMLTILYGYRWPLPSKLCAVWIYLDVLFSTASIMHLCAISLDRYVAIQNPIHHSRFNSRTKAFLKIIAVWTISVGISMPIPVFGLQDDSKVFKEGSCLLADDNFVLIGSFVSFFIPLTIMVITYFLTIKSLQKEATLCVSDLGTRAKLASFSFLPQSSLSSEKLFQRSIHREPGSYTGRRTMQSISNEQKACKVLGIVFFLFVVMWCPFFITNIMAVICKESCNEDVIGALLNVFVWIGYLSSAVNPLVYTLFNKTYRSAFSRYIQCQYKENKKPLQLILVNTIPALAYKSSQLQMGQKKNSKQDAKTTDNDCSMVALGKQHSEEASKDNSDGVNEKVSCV
Method: as §1, §2, §3
as §4, with “algorithm. The single site competition analysis equation used was y=A+((B−A)/(1+((x/C)D))), where y is the % specific binding, A is the minimum y, B is the maximum y, C is the IC50, x is the log 10 of the concentration of the competing compound and D is the slope of the curve (the Hill Coefficient).” for “algorithm.”

[1] = membranes of HEK293 EBNA cells expressing human 5-HT2A, 1.1 nM [3H]-ketanserin

Sequence of human D2 receptor (P14416 whole entry): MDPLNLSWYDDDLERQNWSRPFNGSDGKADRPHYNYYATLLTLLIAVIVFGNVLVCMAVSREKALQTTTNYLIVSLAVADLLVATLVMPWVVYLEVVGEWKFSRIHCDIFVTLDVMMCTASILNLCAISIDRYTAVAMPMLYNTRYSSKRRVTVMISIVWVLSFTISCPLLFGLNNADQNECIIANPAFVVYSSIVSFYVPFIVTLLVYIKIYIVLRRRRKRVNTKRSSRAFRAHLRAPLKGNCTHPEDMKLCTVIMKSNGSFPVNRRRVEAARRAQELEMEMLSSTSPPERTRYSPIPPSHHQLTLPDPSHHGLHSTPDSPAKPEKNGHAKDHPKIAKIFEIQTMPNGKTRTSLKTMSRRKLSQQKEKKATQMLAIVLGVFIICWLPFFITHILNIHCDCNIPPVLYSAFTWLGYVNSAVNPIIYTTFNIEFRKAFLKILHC

SMILES: CO[C@@H]1CC[C@@H](CC(=O)N[C@H]2CC[C@H](CCN3CCN(c4nccc5occc45)CC3)CC2)C1 (racemic) [Example 2, N-{trans-4-[2-(4-Furo[3,2-c]pyridin-4-yl-piperazin-1-yl)-ethyl]-cyclohexyl}-2-(trans-3-methoxy-cyclopentyl)-acetamide]
- pKi (human D2 receptor): 6.10
- pKi (human D3 receptor): 7.54
- pKi (human 5-HT2A receptor; [1]): 8.19

SMILES: CO[C@@H]1CC[C@@H](CC(=O)N[C@H]2CC[C@H](CCN3CCN(c4nccc5sccc45)CC3)CC2)C1 (racemic) [Example 21, 2-(trans-3-Methoxy-cyclopentyl)-N-{trans-4-[2-(4-thieno[3,2-c]pyridin-4-yl-piperazin-1-yl)-ethyl]-cyclohexyl}-acetamide]
- pKi (human D2 receptor): 6.57
- pKi (human D3 receptor): 8.44
- pKi (human 5-HT2A receptor; [1]): 8.43

SMILES: CC(=O)N[C@H]1CC[C@H](CCN2CCN(c3nccc4occc34)CC2)CC1 [Example 1, N-{trans-4-[2-(4-Furo[3,2-c]pyridin-4-yl-piperazin-1-yl)-ethyl]-cyclohexyl}-acetamide]
- pKi (human D2 receptor): 6.31
- pKi (human D3 receptor): 7.74
- pKi (human 5-HT2A receptor): 8.04

SMILES: O=C(C[C@H]1CC[C@H](O)CC1)N[C@H]1CC[C@H](CCN2CCN(c3nccc4occc34)CC2)CC1 [Example 3, N-{trans-4-[2-(4-Furo[3,2-c]pyridin-4-yl-piperazin-1-yl)-ethyl]-cyclohexyl}-2-(trans-4-hydroxy-cyclohexyl)-acetamide]
- pKi (human D2 receptor): 5.81
- pKi (human D3 receptor): 7.26
- pKi (human 5-HT2A receptor): 8.06

SMILES: CCC(=O)N[C@H]1CC[C@H](CCN2CCN(c3nccc4occc34)CC2)CC1 [Example 4, N-{trans-4-[2-(4-Furo[3,2-c]pyridin-4-yl-piperazin-1-yl)-ethyl]-cyclohexyl}-propionamide]
- pKi (human D2 receptor): 6.11
- pKi (human D3 receptor): 7.93
- pKi (human 5-HT2A receptor): 8.19

SMILES: COCCC(=O)N[C@H]1CC[C@H](CCN2CCN(c3nccc4occc34)CC2)CC1 [Example 5, N-{trans-4-[2-(4-Furo[3,2-c]pyridin-4-yl-piperazin-1-yl)-ethyl]-cyclohexyl}-3-methoxy-propionamide]
- pKi (human D2 receptor): 5.87
- pKi (human D3 receptor): 7.62
- pKi (human 5-HT2A receptor; [1]): 8.09

SMILES: O=C(CCO)N[C@H]1CC[C@H](CCN2CCN(c3nccc4occc34)CC2)CC1 [Example 6, N-{trans-4-[2-(4-Furo[3,2-c]pyridin-4-yl-piperazin-1-yl)-ethyl]-cyclohexyl}-3-hydroxy-propionamide]
- pKi (human D2 receptor): 6.02
- pKi (human D3 receptor): 7.70
- pKi (human 5-HT2A receptor; [1]): 7.99

SMILES: O=C(CO)N[C@H]1CC[C@H](CCN2CCN(c3nccc4occc34)CC2)CC1 [Example 7, N-{trans-4-[2-(4-Furo[3,2-c]pyridin-4-yl-piperazin-1-yl)-ethyl]-cyclohexyl}-2-hydroxy-acetamide]
- pKi (human D2 receptor): 5.87
- pKi (human D3 receptor): 7.37
- pKi (human 5-HT2A receptor; [1]): 8.25

SMILES: COCC(=O)N[C@H]1CC[C@H](CCN2CCN(c3nccc4occc34)CC2)CC1 [Example 8, N-{trans-4-[2-(4-Furo[3,2-c]pyridin-4-yl-piperazin-1-yl)-ethyl]-cyclohexyl}-2-methoxy-acetamide]
- pKi (human D2 receptor): 5.94
- pKi (human D3 receptor): 7.11
- pKi (human 5-HT2A receptor; [1]): 8.36

SMILES: CO[C@H]1CC[C@H](CC(=O)N[C@H]2CC[C@H](CCN3CCN(c4nccc5occc45)CC3)CC2)CC1 [Example 9, N-{trans-4-[2-(4-Furo[3,2-c]pyridin-4-yl-piperazin-1-yl)-ethyl]-cyclohexyl}-2-(trans-4-methoxy-cyclohexyl)-acetamide]
- pKi (human D2 receptor): 5.83
- pKi (human D3 receptor): 7.49
- pKi (human 5-HT2A receptor; [1]): 8.25

SMILES: O=C(CC1CCOCC1)N[C@H]1CC[C@H](CCN2CCN(c3nccc4occc34)CC2)CC1 [Example 10, N-{trans-4-[2-(4-Furo[3,2-c]pyridin-4-yl-piperazin-1-yl)-ethyl]-cyclohexyl}-2-(tetrahydro-pyran-4-yl)-acetamide]
- pKi (human D2 receptor): 6.17
- pKi (human D3 receptor): 7.52
- pKi (human 5-HT2A receptor; [1]): 8.21

SMILES: O=C(N[C@H]1CC[C@H](CCN2CCN(c3nccc4occc34)CC2)CC1)C1CCOCC1 [Example 11, Tetrahydro-pyran-4-carboxylic acid {trans-4-[2-(4-furo[3,2-c]pyridin-4-yl-piperazin-1-yl)-ethyl]-cyclohexyl}-amide]
- pKi (human D2 receptor): 6.29
- pKi (human D3 receptor): 7.25
- pKi (human 5-HT2A receptor; [1]): 8.54

SMILES: CCOCC(=O)N[C@H]1CC[C@H](CCN2CCN(c3nccc4occc34)CC2)CC1 [Example 12, 2-Ethoxy-N-{trans-4-[2-(4-furo[3,2-c]pyridin-4-yl-piperazin-1-yl)-ethyl]-cyclohexyl}-acetamide]
- pKi (human D2 receptor): 6.00
- pKi (human D3 receptor): 6.82
- pKi (human 5-HT2A receptor; [1]): 8.13

SMILES: O=C(N[C@H]1CC[C@H](CCN2CCN(c3nccc4occc34)CC2)CC1)C1CC1 [Example 13, Cyclopropanecarboxylic acid {trans-4-[2-(4-furo[3,2-c]pyridin-4-yl-piperazin-1-yl)-ethyl]-cyclohexyl}-amide]
- pKi (human D2 receptor): 6.58
- pKi (human D3 receptor): 7.66
- pKi (human 5-HT2A receptor; [1]): 8.36

SMILES: CS(=O)(=O)N[C@H]1CC[C@H](CCN2CCN(c3nccc4occc34)CC2)CC1 [Example 14, N-{trans-4-[2-(4-Furo[3,2-c]pyridin-4-yl-piperazin-1-yl)-ethyl}-cyclohexyl]-methanesulfonamide]
- pKi (human D2 receptor): 6.06
- pKi (human D3 receptor): 7.47
- pKi (human 5-HT2A receptor; [1]): 8.17

SMILES: CC(=O)N[C@H]1CC[C@H](CCN2CCN(c3nccc4sccc34)CC2)CC1 [Example 15, N-{trans-4-[2-(4-Thieno[3,2-c]pyridin-4-yl-piperazin-1-yl)-ethyl]-cyclohexyl}-acetamide]
- pKi (human D2 receptor): 6.92
- pKi (human D3 receptor): 8.72
- pKi (human 5-HT2A receptor): 8.48

SMILES: CCS(=O)(=O)N[C@H]1CC[C@H](CCN2CCN(c3nccc4occc34)CC2)CC1 [Example 16, Ethanesulfonic acid {trans-4-[2-(4-furo[3,2-c]pyridin-4-yl-piperazin-1-yl)-ethyl]-cyclohexyl}-amide]
- pKi (human D2 receptor): 6.11
- pKi (human D3 receptor): 7.51
- pKi (human 5-HT2A receptor; [1]): 8.07

SMILES: CN(C)S(=O)(=O)N[C@H]1CC[C@H](CCN2CCN(c3nccc4occc34)CC2)CC1 [Example 17, N′-(trans-4{[4-(furo[3,2-c]pyridin-4-yl)-piperazin-1-yl]-ethyl}cyclohexyl)-N,N-dimethylsulfamide]
- pKi (human D2 receptor): 6.27
- pKi (human D3 receptor): 7.48
- pKi (human 5-HT2A receptor; [1]): 8.28

SMILES: CCC(=O)N[C@H]1CC[C@H](CCN2CCN(c3nccc4sccc34)CC2)CC1 [Example 18, N-{trans-4-[2-(4-Thieno[3,2-c]pyridin-4-yl-piperazin-1-yl)-ethyl]-cyclohexyl}-propionamide]
- pKi (human D2 receptor): 6.79
- pKi (human D3 receptor): 8.80
- pKi (human 5-HT2A receptor; [1]): 8.59

SMILES: COCCC(=O)N[C@H]1CC[C@H](CCN2CCN(c3nccc4sccc34)CC2)CC1 [Example 19, 3-Methoxy-N-{trans-4-[2-(4-thieno[3,2-c]pyridin-4-yl-piperazin-1-yl)-ethyl]-cyclohexyl}-propionamide]
- pKi (human D2 receptor): 6.52
- pKi (human D3 receptor): 8.72
- pKi (human 5-HT2A receptor): 8.46

SMILES: CO[C@H]1CC[C@H](CC(=O)N[C@H]2CC[C@H](CCN3CCN(c4nccc5sccc45)CC3)CC2)CC1 [Example 20, 2-(trans-4-Methoxy-cyclohexyl)-N-{trans-4-[2-(4-thieno[3,2-c]pyridin-4-yl-piperazin-1-yl)-ethyl]-cyclohexyl}-acetamide]
- pKi (human D2 receptor): 6.52
- pKi (human D3 receptor): 8.52
- pKi (human 5-HT2A receptor; [1]): 8.60
